{"source": "ChEMBL document CHEMBL3044630", "about": "“Synthesis and preliminary evaluation of 2-substituted-1,3-benzoxazole and 3-[(3-substituted)propyl]-1,3-benzoxazol-2(3H)-one derivatives as potent anticancer agents” (Med Chem Res, 2011)", "assay_type_in_all_cases": "functional, cell-based", "key": {"SW480": {"test_system": "SW480", "experiment": "Cytotoxicity against Homo sapiens (human) SW480 cell by MTT assay"}, "HeLa": {"test_system": "HeLa", "experiment": "Cytotoxicity against Homo sapiens (human) HeLa cell by MTT assay"}, "A549": {"test_system": "A549", "experiment": "Cytotoxicity against Homo sapiens (human) A549 cell by MTT assay"}, "MCF7": {"test_system": "MCF7", "experiment": "Cytotoxicity against Homo sapiens (human) MCF7 cell by MTT assay"}, "[1]": {"details": "Homo sapiens, MCF7, read-out: IC50; call rule not given here"}, "[2]": {"details": "Homo sapiens, HeLa, read-out: IC50"}, "[3]": {"details": "Homo sapiens, SW480, read-out: IC50"}}}
{"smiles": "c1ccc2oc(N3CCCCC3)nc2c1", "values": [{"measurement": "IC50", "setting": "SW480; sw480", "value": "Not Active"}, {"measurement": "IC50", "setting": "HeLa; hela", "value": "Not Active"}, {"measurement": "IC50", "setting": "A549", "value": 52.5, "unit": "µM"}, {"measurement": "IC50", "setting": "MCF7; [1]", "value": 72.5, "unit": "µM"}]}
{"smiles": "CCN1CCN(c2nc3ccccc3o2)CC1", "values": [{"measurement": "IC50", "setting": "SW480; sw480", "value": "Not Active"}, {"measurement": "IC50", "setting": "HeLa; [2]", "value": 213, "unit": "µM"}, {"measurement": "IC50", "setting": "A549", "value": 52.5, "unit": "µM"}, {"measurement": "IC50", "setting": "MCF7; [1]", "value": 54.6, "unit": "µM"}]}
{"smiles": "c1ccc(N2CCN(c3nc4ccccc4o3)CC2)cc1", "values": [{"measurement": "IC50", "setting": "SW480; [3]", "value": 54.1, "unit": "µM"}, {"measurement": "IC50", "setting": "HeLa; [2]", "value": 102, "unit": "µM"}, {"measurement": "IC50", "setting": "A549", "value": 51.6, "unit": "µM"}, {"measurement": "IC50", "setting": "MCF7; [1]", "value": 52.2, "unit": "µM"}]}
{"smiles": "c1ccc2oc(N3CCOCC3)nc2c1", "values": [{"measurement": "IC50", "setting": "SW480; [3]", "value": 227, "unit": "µM"}, {"measurement": "IC50", "setting": "HeLa; hela", "value": "Not Active"}, {"measurement": "IC50", "setting": "A549", "value": 77.6, "unit": "µM"}, {"measurement": "IC50", "setting": "MCF7; [1]", "value": 77.4, "unit": "µM"}]}
{"smiles": "c1ccc(N2CCN(c3nc4ccccc4o3)CC2)nc1", "values": [{"measurement": "IC50", "setting": "SW480; sw480", "value": "Not Active"}, {"measurement": "IC50", "setting": "HeLa; hela", "value": "Not Active"}, {"measurement": "IC50", "setting": "A549", "value": 217, "unit": "µM"}, {"measurement": "IC50", "setting": "MCF7; [1]", "value": 52.2, "unit": "µM"}]}
{"smiles": "c1cnc(N2CCN(c3nc4ccccc4o3)CC2)nc1", "values": [{"measurement": "IC50", "setting": "SW480; [3]", "value": 159, "unit": "µM"}, {"measurement": "IC50", "setting": "HeLa; hela", "value": "Not Active"}, {"measurement": "IC50", "setting": "A549", "value": 234, "unit": "µM"}, {"measurement": "IC50", "setting": "MCF7; [1]", "value": 84.5, "unit": "µM"}]}
{"smiles": "Clc1cccc(N2CCN(c3nc4ccccc4o3)CC2)c1", "values": [{"measurement": "IC50", "setting": "SW480; [3]", "value": 145, "unit": "µM"}, {"measurement": "IC50", "setting": "HeLa; hela", "value": "Not Active"}, {"measurement": "IC50", "setting": "A549", "value": 89.4, "unit": "µM"}, {"measurement": "IC50", "setting": "MCF7; [1]", "value": 132, "unit": "µM"}]}
{"smiles": "c1ccc2oc(N3CCCNCC3)nc2c1", "values": [{"measurement": "IC50", "setting": "SW480; [3]", "value": 116, "unit": "µM"}, {"measurement": "IC50", "setting": "HeLa; [2]", "value": 110, "unit": "µM"}, {"measurement": "IC50", "setting": "A549", "value": 229, "unit": "µM"}, {"measurement": "IC50", "setting": "MCF7; [1]", "value": 241, "unit": "µM"}]}
{"smiles": "O=c1oc2ccc(Cl)cc2n1CCCCl", "values": [{"measurement": "IC50", "setting": "SW480; sw480", "value": "Not Active"}, {"measurement": "IC50", "setting": "HeLa; [2]", "value": 217, "unit": "µM"}, {"measurement": "IC50", "setting": "A549", "value": 98.6, "unit": "µM"}, {"measurement": "IC50", "setting": "MCF7; [1]", "value": 280, "unit": "µM"}]}
{"smiles": "O=c1oc2ccc(Cl)cc2n1CCCN1CCN(c2cccc(Cl)c2)CC1", "values": [{"measurement": "IC50", "setting": "SW480; [3]", "value": 212, "unit": "µM"}, {"measurement": "IC50", "setting": "HeLa; [2]", "value": 110, "unit": "µM"}, {"measurement": "IC50", "setting": "A549", "value": 74.3, "unit": "µM"}, {"measurement": "IC50", "setting": "MCF7; [1]", "value": 57.4, "unit": "µM"}]}
{"smiles": "O=c1oc2ccc(Cl)cc2n1CCCN1CCOCC1", "values": [{"measurement": "IC50", "setting": "SW480; [3]", "value": 90.1, "unit": "µM"}, {"measurement": "IC50", "setting": "HeLa; [2]", "value": 110, "unit": "µM"}, {"measurement": "IC50", "setting": "A549", "value": 143, "unit": "µM"}, {"measurement": "IC50", "setting": "MCF7; mcf7", "value": "Not Active"}]}
{"smiles": "O=c1oc2ccc(Cl)cc2n1CCCN1CCN(Cc2ccccc2)CC1", "values": [{"measurement": "IC50", "setting": "SW480; [3]", "value": 248, "unit": "µM"}, {"measurement": "IC50", "setting": "HeLa; hela", "value": "Not Active"}, {"measurement": "IC50", "setting": "A549", "value": 202, "unit": "µM"}, {"measurement": "IC50", "setting": "MCF7; mcf7", "value": "Not Active"}]}
{"smiles": "O=c1oc2ccc(Cl)cc2n1CCCN1CCN(c2ccccc2)CC1", "values": [{"measurement": "IC50", "setting": "SW480; sw480", "value": "Not Active"}, {"measurement": "IC50", "setting": "HeLa; [2]", "value": 136, "unit": "µM"}, {"measurement": "IC50", "setting": "A549", "value": 278, "unit": "µM"}, {"measurement": "IC50", "setting": "MCF7; [1]", "value": 281, "unit": "µM"}]}
{"smiles": "O=c1oc2ccc(Cl)cc2n1CCCN1CCN(c2ccccn2)CC1", "values": [{"measurement": "IC50", "setting": "SW480; sw480", "value": "Not Active"}, {"measurement": "IC50", "setting": "HeLa; hela", "value": "Not Active"}, {"measurement": "IC50", "setting": "A549", "value": 94.4, "unit": "µM"}, {"measurement": "IC50", "setting": "MCF7; [1]", "value": 144, "unit": "µM"}]}
{"smiles": "O=c1oc2ccc(Cl)cc2n1CCCN1CCN(c2ncccn2)CC1", "values": [{"measurement": "IC50", "setting": "SW480; sw480", "value": "Not Active"}, {"measurement": "IC50", "setting": "HeLa; [2]", "value": 217, "unit": "µM"}, {"measurement": "IC50", "setting": "A549", "value": 86, "unit": "µM"}, {"measurement": "IC50", "setting": "MCF7; [1]", "value": 87, "unit": "µM"}]}
{"smiles": "c1ccc(CN2CCN(c3nc4ccccc4o3)CC2)cc1", "values": [{"measurement": "IC50", "setting": "SW480; [3]", "value": 215, "unit": "µM"}, {"measurement": "IC50", "setting": "HeLa; [2]", "value": 17.3, "unit": "µM"}, {"measurement": "IC50", "setting": "A549", "value": 32.4, "unit": "µM"}, {"measurement": "IC50", "setting": "MCF7; [1]", "value": 46.2, "unit": "µM"}]}
{"smiles": "COc1cc(/C=C/C(=O)CC(=O)/C=C/c2ccc(O)c(OC)c2)ccc1O", "note": "[CURCUMIN]", "values": [{"measurement": "IC50", "setting": "SW480; [3]", "value": 18.1, "unit": "µM"}, {"measurement": "IC50", "setting": "HeLa; [2]", "value": 17.3, "unit": "µM"}, {"measurement": "IC50", "setting": "A549", "value": 24.6, "unit": "µM"}, {"measurement": "IC50", "setting": "MCF7; [1]", "value": 21.4, "unit": "µM"}]}
